Source: US20080280879A1, “SUBSTITUTED HETEROCYCLIC DERIVATIVES AND THEIR PHARMACEUTICAL USE AND COMPOSITIONS” (priority 2007, published 2008)
Converted amounts (≈) assume the structure as drawn.

Legend:
Type in all cases: cell-based, Staphylococcus aureus
Staph aureus 2811 = assay: MIC, microtiter broth dilution (CLSI M7-A7), Assay 1, Table 12 column D, no serum; conditions: for MIC: Staphylococcus aureus, 2811, Staph aureus 2811, Assay 1, no serum; for MIC, column D: Staph aureus 2811, Assay 1, no serum
Outline: (§1)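 Broth microdilution in microtiter trays per CLSI M7-A7, interpreted per M100-S16; MIC (μg/ml) is the lowest concentration preventing macroscopically visible growth. Compounds were dissolved in DMSO at 10 mg/ml. Serum-containing runs used Mueller-Hinton Broth with 50% pooled inactivated human serum; repeated runs are reported as geometric means.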

Staph aureus 1146 [1] = assay: MIC in Mueller-Hinton Broth with 50% pooled inactivated human serum, Assay 1, Table 12; conditions: for MIC: Staphylococcus aureus, 1146, Staph aureus 1146, Assay 1, 50% human serum, read-out: MIC, column C; for MIC, column C: Staph aureus 1146, Assay 1, 50% human serum
Outline: as §1

Staph aureus 1146 [2] = assay: MIC, microtiter broth dilution (CLSI M7-A7), Assay 1, Table 12 column B, no serum; conditions: for MIC: Staphylococcus aureus, 1146, Staph aureus 1146, Assay 1, no serum; for MIC, column B: Staph aureus 1146, Assay 1, no serum
Outline: as §1

Staph aureus 1095 MRSA = assay: MIC, microtiter broth dilution (CLSI M7-A7), Assay 1, Table 12 column A, no serum; conditions: Assay 1, no serum; for MIC: Staphylococcus aureus, MRSA
Outline: as §1

Staph aureus 2812 = assay: MIC, microtiter broth dilution (CLSI M7-A7), Assay 1, Table 12 column E, no serum; conditions: for MIC: Staphylococcus aureus, 2812, Staph aureus 2812, Assay 1, no serum; for MIC, column E: Staph aureus 2812, Assay 1, no serum
Outline: as §1

Row | Compound | MIC (Staph aureus 2811) | MIC (Staph aureus 1146 [1]) | MIC (Staph aureus 1146 [2]) | MIC (Staph aureus 1095 MRSA) | MIC (Staph aureus 2812) | MIC, column D (Staph aureus 2811) | MIC, column C (Staph aureus 1146 [1]) | MIC, column B (Staph aureus 1146 [2]) | MIC, column A (Staph aureus 1095 MRSA) | MIC, column E (Staph aureus 2812)
1 | COc1ccc2nccc([C@@H](O)CNC3CCN([C@H]4C[C@@H](c5ccccc5)C4)CC3C(=O)O)c2c1 (stereo partly drawn) [Example 123, 4-{[(2R)-2-hydroxy-2-(6-methoxyquinolin-4-yl)ethyl]amino}-1-(cis-3-phenylcyclobutyl)piperidine-3-carboxylic acid] | 16 µg/mL (≈ 33.6 µM) | 32 µg/mL (≈ 67.3 µM) | 16 µg/mL (≈ 33.6 µM) | 32 µg/mL (≈ 67.3 µM) | 32 µg/mL (≈ 67.3 µM) |  |  |  |  | 
2 | COc1ccc2nccc(C(O)CC[C@@H]3CCN(C4CN(Cc5ccccn5)C4)C[C@@H]3C(=O)O)c2c1 (stereo partly drawn) [Example 127, (3R,4R)-4-(3-hydroxy-3-(6-methoxyquinolin-4-yl)propyl)-1-(1-(pyridine-2-ylmethyl)azetidin-3-yl)piperdine-3-carboxylic acid] |  |  |  |  |  | >64 µg/mL | >64 µg/mL | >64 µg/mL | >64 µg/mL | >64 µg/mL
3 | COc1ccc2nccc(C(O)CC[C@@H]3CCN(C4CCC(c5ccc(Cl)cc5)C4)C[C@@H]3C(=O)O)c2c1 (stereo partly drawn) [Example 97, (3R,4R)-1-[3-(4-chlorophenyl)cyclopentyl]-4-[3-hydroxy-3-(6-methoxyquinolin-4-yl)propyl]piperidine-3-carboxylic acid] | 8 µg/mL (≈ 15.3 µM) | > 64 µg/mL | 2 µg/mL (≈ 3.82 µM) | 32 µg/mL (≈ 61.2 µM) | 8 µg/mL (≈ 15.3 µM) |  |  |  |  | 
4 | COc1ccc2nccc([C@@H](O)CC[C@@H]3CCN(C4CC(c5ccc(Cl)cc5F)C4)C[C@@H]3C(=O)O)c2c1 (stereo partly drawn) [Example 65, (3R,4R)-1-[3-(4-chloro-2-fluorophenyl)cyclobutyl]-4-[(3S)-3-hydroxy-3-(6-methoxyquinolin-4-yl)propyl]piperidine-3-carboxylic acid] | 0.25 µg/mL (≈ 0.474 µM) | 16 µg/mL (≈ 30.4 µM) | 0.25 µg/mL (≈ 0.474 µM) | 1 µg/mL (≈ 1.9 µM) | 1 µg/mL (≈ 1.9 µM) |  |  |  |  | 
5 | COc1ccc2nc(C)cc(C(O)CC[C@@H]3CCN(C4CC(c5c(F)cccc5F)C4)C[C@@H]3C(=O)O)c2c1 (stereo partly drawn) [Example 179, (3R,4R)-1-[3-(2,6-difluorophenyl)cyclobutyl]-4-[3-hydroxy-3-(6-methoxy-2-methylquinolin-4-yl)propyl] piperidine-3-carboxylic acid] | 1 µg/mL (≈ 1.91 µM) | 32 µg/mL (≈ 61 µM) | 1 µg/mL (≈ 1.91 µM) | 2 µg/mL (≈ 3.81 µM) | 1 µg/mL (≈ 1.91 µM) |  |  |  |  | 
6 | COc1ccc2ncc(Cl)c(C(O)CC[C@@H]3CCN(C4CC(c5ccccc5)C4)C[C@@H]3C(=O)O)c2c1 (stereo partly drawn) [Example 187, (3R,4R)-4-[3-(3-chloro-6-methoxyquinolin-4-yl)-3-hydroxypropyl]-1-(3-phenylcyclobutyl)piperidine-3-carboxylic acid] | < 0.0625 µg/mL |  | < 0.0625 µg/mL | < 0.0625 µg/mL | < 0.0625 µg/mL |  | 1.00 µg/mL (≈ 1.96 µM) |  |  | 
7 | COc1ccc2nccc([C@H](O)CC[C@@H]3CCN(C4CC(C5CCCC5)C4)C[C@@H]3C(=O)O)c2c1 (stereo partly drawn) [Example 46, (3R,4R)-1-(3-cyclopentylcyclobutyl)-4-[(3R)-3-hydroxy-3-(6-methoxyquinolin-4-yl)propyl]piperidine-3-carboxylic acid] | 1 µg/mL (≈ 2.14 µM) | 8 µg/mL (≈ 17.1 µM) | 1 µg/mL (≈ 2.14 µM) | 1 µg/mL (≈ 2.14 µM) | 2 µg/mL (≈ 4.29 µM) |  |  |  |  | 
8 | COc1ccc2nccc(C(O)CC[C@@H]3CCN(C4CC5(CCCCC5)C4)C[C@@H]3C(=O)O)c2c1 (stereo partly drawn) [Example 56, (3R,4R)-4-[3-hydroxy-3-(6-methoxyquinolin-4-yl)propyl]-1-spiro[3.5]non-2-ylpiperidine-3-carboxylic acid] | 0.5 µg/mL (≈ 1.07 µM) | 2 µg/mL (≈ 4.29 µM) | 0.5 µg/mL (≈ 1.07 µM) | 2 µg/mL (≈ 4.29 µM) | 0.5 µg/mL (≈ 1.07 µM) |  |  |  |  | 
9 | COc1ccc2ncc(F)c(CCCC3(C(=O)O)CCN(C4CC(c5nc(C)no5)C4)CC3)c2c1 (stereo not drawn) [Example 98, 4-[3-(3-fluoro-6-methoxyquinolin-4-yl)propyl]-1-[3-(3-methyl-1,2,4-oxadiazol-5-yl)cyclobutyl]piperidine-4-carboxylic acid] | 2 µg/mL (≈ 4.14 µM) | 64 µg/mL (≈ 133 µM) | 2 µg/mL (≈ 4.14 µM) | 4 µg/mL (≈ 8.29 µM) | 4 µg/mL (≈ 8.29 µM) |  |  |  |  | 
10 | COc1ccc2nccc(C(O)CC[C@@H]3CCN(C4CCN(c5ccccc5)C4)C[C@@H]3C(=O)O)c2c1 (stereo partly drawn) [Example 185, (3R,4R)-4-[3-hydroxy-3-(6-methoxyquinolin4-yl)propyl]-1-(1-phenylpyrrolidin-3-yl)piperidine-3-carboxylic acid] | 8 µg/mL (≈ 16.3 µM) | > 64 µg/mL | 2 µg/mL (≈ 4.08 µM) | 8 µg/mL (≈ 16.3 µM) | 4 µg/mL (≈ 8.17 µM) |  |  |  |  | 
11 | COc1ccc2nccc([C@@H](O)CC[C@@H]3CCN(C4CC(c5cccc(OC)c5F)C4)C[C@@H]3C(=O)O)c2c1 (stereo partly drawn) [Example 208, (3R,4R)-1-[3-(2-fluoro-3-methoxyphenyl)cyclobutyl]-4-[(3S)-3-hydroxy-3-(6-methoxyquinolin-4-yl)propyl]piperidine-3-carboxylic acid] | 32 µg/mL (≈ 61.2 µM) | > 64 µg/mL | 32 µg/mL (≈ 61.2 µM) | 64 µg/mL (≈ 122 µM) | 64 µg/mL (≈ 122 µM) |  |  |  |  | 
12 | COc1ccc2nccc([C@@H](O)CC[C@@H]3CCN(C4CC(c5c(F)cccc5Cl)C4)C[C@@H]3C(=O)O)c2c1 (stereo partly drawn) [Example 63, (3R,4R)-1-[3-(2-chloro-6-fluorophenyl)cyclobutyl]-4-[(3S)-3-hydroxy-3-(6-methoxyquinolin-4-yl)propyl]piperidine-3-carboxylic acid] | ≤ 0.0625 µg/mL | 2 µg/mL (≈ 3.79 µM) | ≤ 0.0625 µg/mL | 0.125 µg/mL (≈ 0.237 µM) | ≤ 0.0625 µg/mL |  |  |  |  | 
13 | COc1ccc2nccc(C(O)CC[C@@H]3CCN(C4CC(c5ccc(C)cc5)C4)C[C@@H]3C(=O)O)c2c1 (stereo partly drawn) [Example 6, (3R,4R)-4-[3-hydroxy-3-(6-methoxyquinolin-4-yl)propyl]-1-[3-(4-methylphenyl)cyclobutyl]piperidine-3-carboxylic acid] | 2 µg/mL (≈ 4.09 µM) | 16 µg/mL (≈ 32.7 µM) | 1 µg/mL (≈ 2.05 µM) | 2 µg/mL (≈ 4.09 µM) | 1 µg/mL (≈ 2.05 µM) |  |  |  |  | 
14 | COc1ccc2ncc(F)c(C(O)CC[C@@H]3CCN(C4CC(c5ccccc5)C4)C[C@@H]3C(=O)O)c2c1 (mixture of isomers) [Example 14, (3R,4R)-4-[3-(3-fluoro-6-methoxyquinolin-4-yl)-3-hydroxypropyl]-1-(3-phenylcyclobutyl)piperidine-3-carboxylic acid] | ≤ 0.0947 µg/mL | ≤ 0.379 µg/mL | 0.158 µg/mL | ≤ 0.0947 µg/mL | ≤ 0.0947 µg/mL |  |  |  |  | 
15 | COc1ccc2ncnc(CCCC3(C(=O)O)CCN(C4CC(c5ccccc5)C4)CC3)c2c1 (stereo not drawn) [Example 111, 4-[3-(6-methoxyquinazolin-4-yl)propyl]-1-(3-phenylcyclobutyl)piperidine-4-carboxylic acid] | 1 µg/mL (≈ 2.18 µM) | > 64 µg/mL | 2 µg/mL (≈ 4.35 µM) | 4 µg/mL (≈ 8.7 µM) | 1 µg/mL (≈ 2.18 µM) |  |  |  |  | 
16 | COc1ccc2nccc(C(O)CC[C@@H]3CCN(C4CC(c5ccccc5F)C4)C[C@@H]3C(=O)O)c2c1 (stereo partly drawn) [Example 7, (3R,4R)-1-[3-(2-fluorophenyl)cyclobutyl]-4-[3-hydroxy-3-(6-methoxyquinolin-4-yl)propyl] piperidine-3-carboxylic acid] | 0.125 µg/mL (≈ 0.254 µM) | 1 µg/mL (≈ 2.03 µM) | 0.125 µg/mL (≈ 0.254 µM) | 0.25 µg/mL (≈ 0.508 µM) | 0.125 µg/mL (≈ 0.254 µM) |  |  |  |  | 
17 | CCOCCc1noc(C2CC(N3CC[C@@H](CCC(O)c4ccnc5ccc(OC)cc45)[C@@H](C(=O)O)C3)C2)n1 (stereo partly drawn) [Example 168, (3R,4R)-1-{3-[3-(2-ethoxyethyl)-1,2,4-oxadiazol-5-yl]cyclobutyl}-4-[3-hydroxy-3-(6-methoxyquinolin-4-yl)propyl]piperidine-3-carboxylic acid] | > 64 µg/mL | > 64 µg/mL | > 64 µg/mL | > 64 µg/mL | > 64 µg/mL |  |  |  |  | 
18 | COc1ccc2nccc([C@@H](O)CC[C@@H]3CCN(C4CC(c5c(F)cccc5F)C4(C)C)C[C@@H]3C(=O)O)c2c1 (stereo partly drawn) [Example 200, (3R,4R)-1-[3-(2,6-difluorophenyl)-2,2-dimethylcyclobutyl]-4-[(3S)-3-hydroxy-3-(6-methoxyquinolin-4-yl)propyl]piperidine-3-carboxylic acid] | 8 µg/mL (≈ 14.9 µM) | > 64 µg/mL | 8 µg/mL (≈ 14.9 µM) | 32 µg/mL (≈ 59.4 µM) | 8 µg/mL (≈ 14.9 µM) |  |  |  |  | 
19 | 3-{[2-(3-chloro-6-methoxyquinolin-4-yl)ethyl]amino}-1-(cis-3-phenylcyclobutyl)pyrrolidine-3-carboxylic acid [Example 113] |  |  |  |  |  | 0.125 µg/mL | 16 µg/mL | <=.0625 μg/ml | 0.125 µg/mL | 0.25 µg/mL
20 | COC(=O)[C@H]1CN(C2CC(c3cc(C)no3)C2)CC[C@H]1CCC(O)c1ccnc2ccc(OC)cc12 (stereo partly drawn) [Example 105, methyl (3R,4R)-4-[3-hydroxy-3-(6-methoxyquinolin-4-yl)propyl]-1-[3-(3-methylisoxazol-5-yl)cyclobutyl]piperidine-3-carboxylate] | 2 µg/mL (≈ 4.05 µM) | > 64 µg/mL | 2 µg/mL (≈ 4.05 µM) | 1 µg/mL (≈ 2.03 µM) | 2 µg/mL (≈ 4.05 µM) |  |  |  |  | 
21 | COC(=O)[C@H]1CN(C2CC(c3nnc(C)o3)C2)CC[C@H]1CCC(O)c1ccnc2ccc(OC)cc12 (stereo partly drawn) [Example 99, methyl (3R,4R)-4-[3-hydroxy-3-(6-methoxyquinolin-4-yl)propyl]-1-[3-(5-methyl-1,3,4-oxadiazol-2-yl)cyclobutyl]piperidine-3-carboxylate] | 64 µg/mL (≈ 129 µM) | > 64 µg/mL | 16 µg/mL (≈ 32.3 µM) | 64 µg/mL (≈ 129 µM) | > 64 µg/mL |  |  |  |  | 
